Literature values in patent publication US6326360A, “Bubbling enteric coated preparations” (Grelan Pharmaceuticals Co., Ltd., priority 1998, dated 2001).

Details: oral tablets

## CC1(C)[C@@H](O[C@H]2O[C@H](C(=O)O)[C@@H](O)[C@H](O)[C@H]2O[C@@H]2O[C@H](C(=O)O)[C@@H](O)[C@H](O)[C@H]2O)CC[C@]2(C)[C@H]3C(=O)C=C4[C@@H]5C[C@@](C)(C(=O)O)CC[C@]5(C)CC[C@@]4(C)[C@]3(C)CC[C@@H]12 [glycyrrhizin]
  decomposition of glycyrrhizin in the stomach (in words): quickly decomposed into glycyrrhetinic acid in the stomach
  transfer of unchanged glycyrrhizin into blood (in words): hardly observed
